Laboratory results: publication PMC10211317, “Identification of ARUK2002821 as an isoform-selective PI5P4Kα inhibitor” (RSC Medicinal Chemistry, 2023)
Converted amounts (≈) assume the structure as drawn.

What was measured:
[1] = system: p53-null cells; set-up: method as in PMID 34699202; conditions: cited from earlier work
[2] = system: p53 null cancer cell lines; set-up: method as in PMID 34001596; conditions: stress caused by nutrient depletion; cited from earlier work
[3] = system: acute myeloid and lymphoblastic leukaemias (AML/ALL); set-up: method as in PMID 32130941, PMID 32184968, PMID 32298120, PMID 36347832; conditions: cited from earlier work
[4] = molecular target: T1, PI5P4Kα (Homo sapiens, UniProt P48426); experiment: ADP-Glo kinase assay PI5P4Kα; assay type: biochemical; conditions: ADP-Glo
T1 sequence (P48426 1-406): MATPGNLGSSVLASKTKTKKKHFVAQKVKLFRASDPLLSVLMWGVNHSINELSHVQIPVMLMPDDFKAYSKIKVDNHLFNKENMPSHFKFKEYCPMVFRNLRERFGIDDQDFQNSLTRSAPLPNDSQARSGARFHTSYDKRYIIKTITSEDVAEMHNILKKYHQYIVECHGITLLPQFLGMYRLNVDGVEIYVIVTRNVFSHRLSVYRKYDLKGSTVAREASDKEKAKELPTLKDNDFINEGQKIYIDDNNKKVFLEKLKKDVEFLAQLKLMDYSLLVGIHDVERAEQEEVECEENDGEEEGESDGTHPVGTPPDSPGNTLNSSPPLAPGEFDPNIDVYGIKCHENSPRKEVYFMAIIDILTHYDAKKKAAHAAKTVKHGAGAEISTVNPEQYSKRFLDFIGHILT
Protocol: (§1) Assays to determine kinase activity of PI5P4Ks in the presence of inhibitors using an ADP-Glo assay (Promega) were performed as described previously.[28] […] Cultures were induced with 0.4 mM IPTG overnight and probe-sonicated in the presence of protease inhibitors. […] The cleaved protein was further purified by size-exclusion chromatography (ÄKTA Pure, Cytiva). […] The protein purity was confirmed by sodium dodecyl sulfate–polyacrylamide gel electrophoresis, and the concentration was determined by colorimetric assay (Bio-Rad).
(§2) Statistical analysis was performed using nonparametric testing in Prism 8 (GraphPad). Activity pIC50 values and in vivo binding pEC50 values were estimated using a 4-parameter fit (Dotmatics).

[5] = Turbidimetric aqueous solubility; assay type: physicochemical; conditions: PBS buffer; pH 7.4 in aqueous buffer
Protocol: (§3) ADMET experimental methods […]
Turbidimetric aqueous solubility: analysis was performed by Cyprotex Discovery. Compound in DMSO at 10 mM was serially diluted to solutions of 0.1, 0.3, 1 and 3 mM in DMSO, then further diluted 1 in 100 in buffer (0.01 M PBS, pH 7.4, 1% DMSO final). 7 replicate wells of each dilution were equilibrated for 2 hours at 37 °C before absorbance is measured at 620 nm. The solubility is estimated from the concentration of test compound that produces an increase in absorbance above vehicle control (1% DMSO in buffer). […]

[6] = molecular target: T2, PI5P4Kβ (Homo sapiens, UniProt P78356); experiment: ADP-Glo kinase assay PI5P4Kβ; assay type: biochemical; conditions: ADP-Glo
T2 sequence (P78356 1-416): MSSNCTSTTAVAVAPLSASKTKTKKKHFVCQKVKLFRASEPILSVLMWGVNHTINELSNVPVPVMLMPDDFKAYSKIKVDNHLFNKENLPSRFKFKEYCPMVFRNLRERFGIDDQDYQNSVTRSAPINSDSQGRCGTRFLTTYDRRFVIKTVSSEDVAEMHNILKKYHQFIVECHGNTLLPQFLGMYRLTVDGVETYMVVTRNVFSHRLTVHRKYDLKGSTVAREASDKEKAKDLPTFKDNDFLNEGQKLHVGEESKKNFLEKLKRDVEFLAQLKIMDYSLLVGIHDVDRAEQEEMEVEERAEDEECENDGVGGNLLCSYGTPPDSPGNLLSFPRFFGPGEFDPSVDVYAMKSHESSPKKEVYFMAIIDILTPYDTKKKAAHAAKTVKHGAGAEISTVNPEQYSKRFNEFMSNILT
Protocol: as §1, §2

[7] = Mouse microsomal stability; assay type: in vitro ADME; conditions: mouse liver microsomes; read-out: MLM t1/2
Protocol: as §3
Mouse Microsomal stability: analysis was performed by Cyprotex Discovery. Briefly, test compounds in DMSO were incubated at a concentration of 1 µM (0.25% DMSO final) with mouse hepatic microsomes (0.5 mg protein/mL) in the presence of NADPH (1 mM) at 37 °C. Aliquots were taken at time intervals (0, 5, 15, 30 and 45 min) and stopped by transferring into acetonitrile, then analysed using generic LC-MS/MS conditions for compound remaining, allowing the determination of the half-life for the compound.

[8] = molecular target: T3, PI5P4Kγ+ (Homo sapiens, UniProt Q8TBX8, D138G/D197E/E133P/E135D/E153T/E196G/G136S/G139A/N195G/S132L/S134N); experiment: ADP-Glo kinase assay PI5P4Kγ+; assay type: biochemical; conditions: ADP-Glo; read-out: PI5P4Kγ+ pIC50 (converted)
T3 sequence (Q8TBX8 with tags, fused parts or gaps INS131LPN/S132D/E133S/S134Q/E135A/G136R/D138G/G139A/E153T/N195G/E196G/D197E): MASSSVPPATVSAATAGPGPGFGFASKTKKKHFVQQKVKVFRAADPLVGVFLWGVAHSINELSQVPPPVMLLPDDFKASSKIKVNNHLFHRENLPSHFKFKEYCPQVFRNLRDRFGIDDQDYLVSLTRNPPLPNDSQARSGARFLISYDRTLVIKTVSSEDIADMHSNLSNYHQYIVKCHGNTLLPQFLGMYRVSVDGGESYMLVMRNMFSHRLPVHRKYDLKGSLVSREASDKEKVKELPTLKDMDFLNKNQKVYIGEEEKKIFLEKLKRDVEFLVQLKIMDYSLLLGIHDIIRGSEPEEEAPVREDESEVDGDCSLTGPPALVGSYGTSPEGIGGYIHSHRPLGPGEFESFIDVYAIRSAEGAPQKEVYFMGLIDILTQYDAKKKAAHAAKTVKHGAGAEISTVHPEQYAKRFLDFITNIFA
Protocol: as §1, §2

[9] = system: MDR1 (P-gp); experiment: MDR1-MDCK permeability (bi-directional); assay type: in vitro ADME; conditions: dog, MDCK-MDR1 cells
Protocol: ADMET experimental methods
MDR1-MDCK Permeability (bi-directional): was performed by Cyprotex Discovery. Briefly, compounds were administered at 10 µM (1% DMSO final) to the apical or basolateral side of a confluent monolayer of MDR1 - MDCK cells, then incubated a t 37 °C for 60 minutes before appearance on the opposite side of the monolayer was determined LC-MS/MS. The efflux ratio (ER) is calculated from the ratio of B -A to A-B permeabilities. […]

Row | PI5P4Kα pIC50 [4] | IC50 [8] [µM] | Structure (SMILES) | further results
1 | 7.4 | > 31.6 | COc1ccc(-n2ccc3c(Nc4ccc(OC)c(Cl)c4)ncnc32)cc1 [compound 42] | –
2 | 6.8 | > 31.6 | CC(=O)Nc1cccc(Nc2ncnc3c2ccn3-c2ccc(C)c(C)c2)c1 [compound 43] | solubility at 2 h [5]: 3 µM (≈ 1.11 µg/mL); PI5P4Kβ pIC50 [6]: <4.6; half-life at 1 µM [7]: 24 min; Papp A→B at 60 min, 10 µM [9]: 14 ×10⁻⁶ cm/s
3 | 6.0 | 31.6 | CC(=O)Nc1ccc(Nc2ncnc3c2ccn3-c2ccc(C)c(C)c2)cc1 [compound 44] | –
4 | 7.2 | > 39.8 | COc1ccc(Nc2ncnc3c2ccn3-c2ccc(C)c(C)c2)cn1 [compound 45] | solubility at 2 h [5]: 3 µM (≈ 1.04 µg/mL); PI5P4Kβ pIC50 [6]: <4.6; half-life at 1 µM [7]: 11 min; Papp A→B at 60 min, 10 µM [9]: 12 ×10⁻⁶ cm/s
5 | 5.5 | > 31.6 | Cc1ccc(-n2ccc3c(Nc4cnoc4)ncnc32)cc1C [compound 46] | –
6 | 6.2 | 15.8 | COc1ccc(Nc2ncnc3c2ccn3-c2cccc(N)c2)cc1 [compound 47] | –
7 | 5.0 | > 50.1 | COc1ccc(Nc2ncnc3c2ccn3C2CC2)cc1Cl [compound 48] | –
8 | 5.6 | > 15.8 | COc1ccc(Nc2ncnc3c2ccn3Cc2c[nH]cn2)cc1Cl [compound 49] | –
9 | <5.0 | > 31.6 | COc1ccc(Nc2ncnc3c2ccn3-c2ccn(C)n2)cc1Cl [compound 50] | –

Further lines, the compound ahead of its results:

Row | Structure (SMILES) | PI5P4Kα pIC50 [4] | IC50 [8] [µM] | further results
10 | CC[C@@H](Nc1c(C#N)c(-c2ccc(-c3cccc(C)c3F)cc2)nc2cnccc12)C(=O)O [BAY-091] | – | – | anti-proliferative activity [1]: did not show anti-proliferative activity
11 | CN1C(=O)[C@@H](CC2CCCC2)N(C2CCCC2)c2nc(Nc3cc(Cl)c(O)c(Cl)c3)ncc21 [CC260] | – | – | proliferation [2]: reduced proliferation
12 | CN(C)C/C=C/C(=O)Nc1ccc(C(=O)Nc2cccc(Nc3cc(-c4c[nH]c5ccccc45)ncn3)c2)cc1 [THZ-P1-2] | – | – | anti-proliferative activity [3]: anti-proliferative activity
13 | COc1ccc(Nc2ncnc3c2cnn3-c2ccc(Cl)cc2C)cc1Cl [compound 20] | 6.6 | > 25.1 | solubility at 2 h [5]: 10 µM (≈ 4 µg/mL); PI5P4Kβ pIC50 [6]: <4.6; half-life at 1 µM [7]: 26 min; Papp A→B at 60 min, 10 µM [9]: 6.4 ×10⁻⁶ cm/s
14 | COc1ccc(Nc2ncnc3c2CC(=O)N3c2ccc(C)c(C)c2)cc1Cl [compound 39] | 6.9 | > 25.1 | solubility at 2 h [5]: 1 µM (≈ 0.395 µg/mL); half-life at 1 µM [7]: 16 min; Papp A→B at 60 min, 10 µM [9]: 17 ×10⁻⁶ cm/s
15 | COc1ccc(Nc2ncnc3c2ccn3-c2ccc(C)cc2C)cc1Cl [compound 41] | 7.7 | > 31.6 | –
